Measurements: patent US8986957B2, “Cell culture medium” (Novartis AG, priority 2010, dated 2015)

Key:
[1] = test system: CHO cells expressing mAb3 and mAb4
Procedure: In a further set of experiments, choline chloride is added in various concentrations (40; 80; 120; 160, 200; 240; 500; 840; 1000; 3000 und 5000 mg/l in total) to powder growth medium. The media thus obtained are used for producing mAb3 and mAb4, respectively, generally as outlined above.
Normalized antibody concentrations, normalized viable cell densities, and viabilities, for mAb3 and in addition for mAb4 the normalized cell specific productivity for the whole duration of the cultivation (13 resp. 17 days) are further depicted in FIG. 14 to FIG. 24.

[2] = test system: CHO cells expressing mAb3; conditions: higher concentrations of choline chloride in production medium vs standard 240 mg/L
Procedure: Three aliquots of this parental cell line are transfected to express three different monoclonal antibodies mAb1, mAb2, mAb3, respectively.
All nine shake flasks (three for each experiment) are run under the same conditions, except for the medium. The conditions involve a fed-batch culture with two daily bolus feeds starting at days 3 and 5 with a feeding rate of 2 and 0.4% of the initial culture volume per day; a temperature shift from 36.5° C. to 33° C. at day 5; 10% CO2 in the incubator; a shaking rate of 150 rpm (stroke radius=25 mm). The cell growth/viability of the cells as well as the resulting titer of recombinant antibody expressed are determined.

[3] = choline chloride 3000 mg/l and more

Compound: C[N+](C)(C)CCO.[Cl-] [choline chloride]
- viability and antibody concentration ([1]; 40 mg/l choline chloride in total, after 13 or 17 days in culture): lowest values
- viability ([1]; all choline concentrations higher than 40 mg/l): higher
- cell growth [1, 3]: do not grow
- viability of the cells [1, 3]: do not negatively affect the viability
- normalized antibody concentration ([1]; choline chloride 3000 mg/l and more, after 13 or 17 days): below 1
- cell growth or polypeptide titer [2]: did not result in improved cell growth or polypeptide titer
